The text below walks through data of patent US20110229575A1, “DEEP IMMERSION FLOTATION THERAPY FOR BURN VICTIMS” (priority 2008, published 2011).

Series [1] in a line: Physical properties of F-tert-butylcyclohexane. It is filed as physicochemical. An excerpt: Oxycyte™ is based on the perfluorocarbon F-tert-butylcyclohexane, a saturated alicyctic PFC (molecular formula C10F20) and can be used as a PFC composition in the methods and uses described herein. Physical properties of F-tert-butylcyclohexane are as follows: […]
Another series in a line: Lipophilicity of the PFC. It is filed as physicochemical. An excerpt:
Circulation of the perflurocarbon liquid can be employed so that the patient floats without constraints, alleviating pain associated with usual system of treatment. As the liquid is continuously circulated, external heating or cooling of the fluid can be employed in order to maintain a comfort level for the patient. The fluid is preferably filtered to assure a biologically inert and/or sterile liquid environment for the patient. Additionally, a gas mixture containing 0 to 100% oxygen from (with adequate controls and precautions for ultra-ambient levels) is bubbled in the circulating PFC to supply oxygen to the patient's skin. PFCs are excellent transporters of oxygen and carbon dioxide; being that the PFCs are slightly lipophilic at body temperature and would help in the transport of oxygen into and removal of carbon dioxide from the skin tissue, accelerating the healing process.

`FC(F)(F)C(C(F)(F)F)(C(F)(F)F)C1(F)C(F)(F)C(F)(F)C(F)(F)C(F)(F)C1(F)F` [F-tert-butylcyclohexane, perfluoro-tert-butylcyclohexane] displayed a Density in series [1] of 1.97 g/mL. In addition, the “Kinematic Viscosity” value in series [1] came out at 5.378 cP. The “Vapor Pressure” value in series [1] (@25° C.) turned out to be 3.8 mmHg; in series [1] (@37° C.), 4.4 mmHg. In addition, the Lipophilicity entry is reported as “only slightly lipophilic” in the series “Lipophilicity of the PFC” (at body temperature) and “not lipophilic” in the series “Lipophilicity of the PFC” (at room temperature).
